Test results: patent US8569292B2, “Cyclic inhibitors of 11β-hydroxysteroid dehydrogenase 1” (Vitae Pharmaceuticals, Inc., priority 2008, dated 2013)

Legend:
11β-HSD1 [1] = target: T1, 11β-HSD1 (Homo sapiens, UniProt P28845); test: biochemical; settings: for inhibition at 0.1 µM: read-out: Average % inhibition at 100 nM
11β-HSD1 [2] = target: T1, 11β-HSD1; test: Biological Test Example 4: microsomal 11β-HSD1 in the presence of 50% human plasma; settings: for Shift: IC50 in Test Example 4 divided by IC50 in Test Example 1
[3] = Biological Test Example 1 IC50 (nM)
[4] = IC50 Range, Biological Test Example 1

T1 sequence (P28845 whole entry): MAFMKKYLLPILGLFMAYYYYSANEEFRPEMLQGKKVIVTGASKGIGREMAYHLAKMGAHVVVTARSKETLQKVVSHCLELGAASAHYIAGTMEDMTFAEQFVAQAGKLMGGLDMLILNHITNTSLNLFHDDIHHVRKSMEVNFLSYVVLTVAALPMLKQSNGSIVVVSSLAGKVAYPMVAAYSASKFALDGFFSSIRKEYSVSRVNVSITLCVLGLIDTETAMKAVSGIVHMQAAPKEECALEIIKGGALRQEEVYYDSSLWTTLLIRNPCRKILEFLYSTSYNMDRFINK

SMILES | IC50 (11β-HSD1 [1]; [3]) [nM] | IC50 (11β-HSD1 [1]; [4]) [nM] | inhibition at 0.1 µM (11β-HSD1 [1]) [%] | IC50 (11β-HSD1 [2]) [nM] | Shift (11β-HSD1 [2]) | inhibition at 0.111 µM (11β-HSD1 [1]; read-out: average % inhibition at 111 nM) [%] | IC50 (11β-HSD1 [1]) [nM]
Cc1nc(C)c(-c2ccc([C@H](C)N3CC[C@](CCC(N)=O)(c4ccc(F)cc4)OC3=O)cc2)s1 [EXAMPLE 84, 3-((R)-3-((S)-1-(4-(2,4-dimethylthiazol-5-yl)phenyl)ethyl)-6-(4-fluorophenyl)-2-oxo-1,3-oxazinan-6-yl)propanamide] | 3.5 | < 100 | 93.3 | 12.4 | 3.5 |  | 
C[C@@H](c1ccc(-c2cncc(C(N)=O)n2)cc1)N1CC[C@](CC(C)(C)O)(c2ccc(F)cc2)OC1=O [EXAMPLE 159, 6-(4-{1-[6-(4-Fluoro-phenyl)-6-(2-hydroxy-2-methyl-propyl)-2-oxo-[1,3]oxazinan-3-yl]-ethyl}-phenyl)-pyrazine-2-carboxylic acid amide] | 3.3 | < 100 | 94.6 | 7.3 | 2.2 |  | 
Cc1cc(-c2ccc([C@H](C)N3CC[C@](CCN(C)S(C)(=O)=O)(c4ccccc4)OC3=O)cc2)ccn1 [EXAMPLE 117, N-methyl-N-(2-((S)-3-((S)-1-(4-(2-methylpyridin-4-yl)phenyl)ethyl)-2-oxo-6-phenyl-1,3-oxazinan-6-yl)ethyl)methanesulfonamide] | 1.7 | < 100 | 93.9 | 12.1 | 7.3 |  | 
C[C@@H](c1ccc(-c2ccccn2)cc1)N1CC[C@](CC(C)(C)O)(c2ccccc2)OC1=O [EXAMPLE 86, (S)-6-(2-hydroxy-2-methylpropyl)-6-phenyl-3-((S)-1-(4-(pyridin-2-yl)phenyl)ethyl)-1,3-oxazinan-2-one] | 0.6 | < 100 | 99.6 | 6.4 | 11.1 |  | 
Cc1cc(-c2ccc([C@H](C)N3CC[C@](CCCO)(c4ccc(F)cc4)OC3=O)cc2)cc(C)n1 [EXAMPLE 81, (R)-3-((S)-1-(4-(2,6-dimethylpyridin-4-yl)phenyl)ethyl)-6-(4-fluorophenyl)-6-(3-hydroxypropyl)-1,3-oxazinan-2-one] | 0.6 | < 100 | 99.3 |  |  |  | 
C=CC[C@]1(c2ccc(F)cc2)CCN([C@@H](C)c2ccc(-c3nnc(C)s3)cc2)C(=O)O1 [EXAMPLE 39, (R)-6-allyl-6-(4-fluorophenyl)-3-((S)-1-(4-(5-methyl-1,3,4-thiadiazol-2-yl)phenyl)ethyl)-1,3-oxazinan-2-one] | 5.2 | < 100 | 73.6 |  |  |  | 
C[C@@H](c1ccc(-c2ccc[n+]([O-])c2)cc1)N1CC[C@](CCC(N)=O)(c2ccccc2)OC1=O [EXAMPLE 50, 3-(4-((S)-1-((R)-6-(3-amino-3-oxopropyl)-2-oxo-6-phenyl-1,3-oxazinan-3-yl)ethyl)phenyl)pyridine 1-oxide] | 29.1 |  | 81.2 |  |  |  | < 100
Cc1cc(-c2ccc([C@H](C)N3CC[C@](CCC(C)(C)O)(c4ccc(F)cc4)OC3=O)cc2)ccn1 [EXAMPLE 79, (R)-6-(4-fluorophenyl)-6-(3-hydroxy-3-methylbutyl)-3-((S)-1-(4-(2-methylpyridin-4-yl)phenyl)ethyl)-1,3-oxazinan-2-one] | 28.3 | < 100 | 76.9 |  |  |  | 
CC1(c2ccccc2)CCN(c2cccc(-c3ccncc3)c2)C(=O)O1 (centres unmarked) [EXAMPLE 33, 6-methyl-6-phenyl-3-(3-(pyridin-4-yl)phenyl)-1,3-oxazinan-2-one] | 305 | 100 to 1000 |  |  |  | 37.1 | 
CNC(=O)c1cncc(-c2ccc([C@H](C)N3CC[C@](CCCO)(c4ccc(F)cc4)OC3=O)cc2)c1 [EXAMPLE 73, 5-(4-((S)-1-((R)-6-(4-fluorophenyl)-6-(3-hydroxypropyl)-2-oxo-1,3-oxazinan-3-yl)ethyl)phenyl)-N-methylnicotinamide] | 46.9 | < 100 | 65.3 |  |  |  | 
C[C@@H](c1ccc(-c2cncc(F)c2)cc1)N1CC[C@](CCC(=O)O)(c2ccc(F)cc2)OC1=O [EXAMPLE 70, 3-((R)-6-(4-fluorophenyl)-3-((S)-1-(4-(5-fluoropyridin-3-yl)phenyl)ethyl)-2-oxo-1,3-oxazinan-6-yl)propanoic acid] | 99.6 | < 100 | 49.7 |  |  |  | 

Second part, led by results:

IC50 (11β-HSD1 [1]; [3]) [nM] | IC50 (11β-HSD1 [1]; [4]) [nM] | inhibition at 0.1 µM (11β-HSD1 [1]) [%] | IC50 (11β-HSD1 [2]) [nM] | Shift (11β-HSD1 [2]) | inhibition at 0.111 µM (11β-HSD1 [1]; read-out: average % inhibition at 111 nM) [%] | SMILES | IC50 (11β-HSD1 [1]) [nM]
43.5 | < 100 | 64.8 |  |  |  | C[C@@H](c1ccc(-c2cncc(C(=O)N(C)C)c2)cc1)N1CC[C@](CCCO)(c2ccc(F)cc2)OC1=O [EXAMPLE 72, 5-(4-((S)-1-((R)-6-(4-fluorophenyl)-6-(3-hydroxypropyl)-2-oxo-1,3-oxazinan-3-yl)ethyl)phenyl)-N,N-dimethylnicotinamide] | 
1 | < 100 | 90.9 | 34.3 | 33.4 |  | C=CC[C@]1(c2ccc(F)cc2)CCN([C@@H](C)c2ccc(-c3sc(C)nc3C)cc2)C(=O)O1 [EXAMPLE 42, (R)-6-allyl-3-((S)-1-(4-(2,4-dimethylthiazol-5-yl)phenyl)ethyl)-6-(4-fluorophenyl)-1,3-oxazinan-2-one] | 
1 | < 100 | 96.3 | 8.6 | 8.4 |  | C[C@@H](c1ccc(-c2ccc(C(C)(C)C)nn2)cc1)N1CC[C@](CC(C)(C)O)(c2ccccc2)OC1=O [EXAMPLE 6, (S)-3-((S)-1-(4-(6-tert-butylpyridazin-3-yl)phenyl)ethyl)-6-(2-hydroxy-2-methylpropyl)-6-phenyl-1,3-oxazinan-2-one] | 
1.8 | < 100 | 98.1 | 25.2 |  |  | C[C@@H](c1ccc(-c2nccs2)cc1)N1CC[C@](CCCO)(c2ccc(F)cc2)OC1=O [EXAMPLE 82, (R)-6-(4-fluorophenyl)-6-(3-hydroxypropyl)-3-((S)-1-(4-(thiazol-2-yl)phenyl)ethyl)-1,3-oxazinan-2-one] | 
12.2 | < 100 | 83.8 |  |  |  | C[C@@H](c1ccc(-c2ncc(C(C)(C)O)cn2)cc1)N1CC[C@](CC(C)(C)O)(c2ccccc2)OC1=O [EXAMPLE 29, (S)-6-(2-hydroxy-2-methylpropyl)-3-((S)-1-(4-(5-(2-hydroxypropan-2-yl)pyrimidin-2-yl)phenyl)ethyl)-6-phenyl-1,3-oxazinan-2-one] | 
3.5 | < 100 | 90.7 | 13.2 | 3.8 |  | CC[C@@H](c1ccc(-c2cc(C)[n+]([O-])c(C)c2)cc1)N1CC[C@](CC(C)(C)O)(c2ccccc2)OC1=O [EXAMPLE 154, 4-(4-((S)-1-((S)-6-(2-hydroxy-2-methylpropyl)-2-oxo-6-phenyl-1,3-oxazinan-3-yl)propyl)phenyl)-2,6-dimethylpyridine 1-oxide] | 
1 | < 100 | 92.4 |  |  |  | C[C@@H](c1ccc(-c2ccc(OCC(C)(C)O)nc2)cc1)N1CC[C@](CC(C)(C)O)(c2ccccc2)OC1=O [EXAMPLE 198, (S)-3-((S)-1-(4-(6-(2-hydroxy-2-methylpropoxy)pyridin-3-yl)phenyl)ethyl)-6-(2-hydroxy-2-methylpropyl)-6-phenyl-1,3-oxazinan-2-one] | 
0.6 | < 100 |  |  |  |  | COc1cc(-c2ccc([C@H](C)N3CC[C@](CC(C)(C)O)(c4ccccc4)OC3=O)cc2)ccn1 [EXAMPLE 210, (S)-6-(2-hydroxy-2-methylpropyl)-3-((S)-1-(4-(2-methoxypyridin-4-yl)phenyl)ethyl)-6-phenyl-1,3-oxazinan-2-one] | 
85.1 | < 100 | 50 |  |  |  | C[C@@H](c1ccc(-c2ccc[n+]([O-])c2)cc1)N1CC[C@](CCC(N)=O)(c2ccc(F)cc2)OC1=O [EXAMPLE 68, 3-(4-((S)-1-((R)-6-(3-amino-3-oxopropyl)-6-(4-fluorophenyl)-2-oxo-1,3-oxazinan-3-yl)ethyl)phenyl)pyridine 1-oxide] | 
63.5 | < 100 | 62.9 |  |  |  | CC(C)[C@@]1(CC(C)(C)O)CCN([C@@H](C)c2ccc(-c3cnc(C(=O)NC4CC4)nc3)cc2)C(=O)O1 [EXAMPLE 199, N-cyclopropyl-5-(4-((S)-1-((S)-6-(2-hydroxy-2-methylpropyl)-6-isopropyl-2-oxo-1,3-oxazinan-3-yl)ethyl)phenyl)pyrimidine-2-carboxamide] | 
9.2 | < 100 | 88 |  |  |  | Cc1cc(-c2ccc([C@H](C)N3CC[C@](CCCN4CCCC4=O)(c4ccccc4)OC3=O)cc2)ccn1 [EXAMPLE 104, (R)-3-((S)-1-(4-(2-methylpyridin-4-yl)phenyl)ethyl)-6-(3-(2-oxopyrrolidin-1-yl)propyl)-6-phenyl-1,3-oxazinan-2-one] | 
44.1 | < 100 | 68.7 |  |  |  | C[C@@H](c1ccc(-c2cncc(C(N)=O)c2)cc1)N1CC[C@](CCCO)(c2ccc(F)cc2)OC1=O [EXAMPLE 71, 5-(4-((S)-1-((R)-6-(4-fluorophenyl)-6-(3-hydroxypropyl)-2-oxo-1,3-oxazinan-3-yl)ethyl)phenyl)nicotinamide] | 
0.8 | < 100 | 93.4 |  |  |  | C=CC[C@]1(c2ccccc2)CCN([C@@H](C)c2ccc(-c3cncc(F)c3)cc2)C(=O)O1 [EXAMPLE 46, (R)-6-allyl-3-((S)-1-(4-(5-fluoropyridin-3-yl)phenyl)ethyl)-6-phenyl-1,3-oxazinan-2-one] | 
> 100 | > 100 | 13.7 |  |  |  | Cc1ncc(-c2ccc([C@H](C)N3CC[C@](CCc4nnc(C)o4)(c4ccccc4)OC3=O)cc2)cn1 [EXAMPLE 18, (R)-6-(2-(5-methyl-1,3,4-oxadiazol-2-yl)ethyl)-3-((S)-1-(4-(2-methylpyrimidin-5-yl)phenyl)ethyl)-6-phenyl-1,3-oxazinan-2-one] | 
